Experimental data taken from patent US12528812B2 (Genentech, Inc., priority 2020, dated 2026).
Read-outs that look alike come from different tables or passages of the source.

Assays:
[1] = target: T1, recombinant human JAK1 kinase domain protein (Residues 854-1154) (Homo sapiens, UniProt P23458); test: JAK1 biochemical assay (LabChip mobility shift, Ki); conditions: read-out: Biochem JAK1 Ki
T1 construct: human JAK1 kinase domain protein (Residues 854-1154); purchased Proteros Biostructures GmbH (Martinsried, Germany); host or cells: insect cells
T1 sequence (P23458 854-1154): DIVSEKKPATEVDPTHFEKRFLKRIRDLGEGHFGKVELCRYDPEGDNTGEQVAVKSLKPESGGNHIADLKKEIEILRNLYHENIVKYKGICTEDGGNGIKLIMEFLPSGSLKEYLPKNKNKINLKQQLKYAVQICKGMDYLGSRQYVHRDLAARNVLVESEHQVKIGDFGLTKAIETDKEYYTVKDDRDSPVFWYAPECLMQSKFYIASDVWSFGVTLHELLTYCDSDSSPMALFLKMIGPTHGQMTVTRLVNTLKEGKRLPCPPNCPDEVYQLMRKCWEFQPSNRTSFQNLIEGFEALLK

[2] = target: Recombinant human JAK2 kinase domain protein (Residues 812-1132) (Homo sapiens, UniProt O60674); test: JAK2 biochemical assay (LabChip mobility shift, Ki); conditions: Biochem JAK2 Ki
Sequence of Recombinant human JAK2 kinase domain protein (Residues 812-1132) (O60674 812-1132): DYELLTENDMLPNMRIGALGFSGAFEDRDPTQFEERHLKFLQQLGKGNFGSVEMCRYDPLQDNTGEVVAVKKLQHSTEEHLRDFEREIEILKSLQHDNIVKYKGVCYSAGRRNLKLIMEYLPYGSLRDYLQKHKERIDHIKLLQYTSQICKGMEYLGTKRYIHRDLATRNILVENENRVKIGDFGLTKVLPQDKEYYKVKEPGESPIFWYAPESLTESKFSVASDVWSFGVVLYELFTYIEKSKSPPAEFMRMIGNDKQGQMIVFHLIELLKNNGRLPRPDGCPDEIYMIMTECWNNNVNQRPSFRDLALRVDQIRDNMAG

[3] = tested on: IL-13-stimulated STAT6 phosphorylation in human lung bronchial epithelial BEAS-2B cell line; test: P-STAT6 BEAS-2B + IL-13 cell assay; assay type: cell-based; conditions: BEAS2B cells, IL13 stimulation, read-out: Cellular JAK1 PSTAT6 BEAS2B + IL13
Description: In order to study the effect of JAK1 inhibitors in a cell line that is relevant to the cell biology of human asthma, an IL-13-stimulated STAT6 phosphorylation assay in the human lung bronchial epithelial BEAS-2B cell line was developed.
BEAS-2B cells (ATCC′ CRL-9609™) were grown in Bronchial Epithelial Growth Medium (BEGM) (Lonza Catalog No. CC-3170; Walkersville, MD; or PromoCell Catalog No. C-21060; Heidelberg, Germany). Test compound stock solutions (0.5 mM in DMSO) were serially diluted 1:2 in DMSO to generate a 10-point concentration curve (at 500× test concentration), which was further diluted by a 50-fold dilution step in BEGM to generate a 10× concentration curve (in 2% DMSO). Cells were plated at 100,000 cells/well in 200 μL of BEGM in 96-well plates and incubated for 48 hours at 37° C. in a humidified incubator. Medium was aspirated from the cells and replaced with 70 μL of fresh BEGM. Diluted test compound (10 μL; or 2% DMSO in assay medium) was added to the cells, and the plates were incubated for 1 hour at 37° C. in a humidified incubator. Twenty μL of 250 ng/mL human recombinant IL-13 (Bio Techne Catalog No. 213-ILB) was then added to the cells and incubated for 15 minutes at 37° C. Medium was aspirated from the cells and 60 μL of ice-cold 1× cell lysis buffer (Cell Signaling Technologies; Catalog No. 9803S) containing 1 mM PMSF was added to the cells. Assay plates were incubated at −80° C. for at least 1 hour. P-STAT6 was measured by coating GAR plates (MSD; Catalog No. L45RA-1) with rabbit anti-human total STAT6 antibody (Cell Signaling Technologies; Catalog No. 9362S), incubating the cell lysates in the coated plates overnight at 4° C., and then detecting with mouse anti-phospho-STAT6 (Tyr641) Clone 16E12 antibody (Millipore; Catalog No. 05-590, custom labeled by MSD with SULFO-tag) using standard MSD plate processing, washing, and detection protocols. Plates were read on the MESO SECTOR 5600.
Data analysis was performed by subtracting negative control values from all wells and determining percent of control using the positive control values; the IC50 was determined with a four-parameter logistic fit model as shown in Equation 4.

Work on `Cn1cc(NC(=O)c2cnn3cccnc23)c(-c2cc(Oc3cnn([C@H]4CCNC4)c3)ccc2OC(F)F)n1` (racemic) [Example 144, N-[3-[2-(difluoromethoxy)-5-[1-[rac-(3S)-pyrrolidin-3-yl]pyrazol-4-yl]oxy-phenyl]-1-methyl-pyrazol-4-yl]pyrazolo[1,5-a]pyrimidine-3-carboxamide] yielded a Ki [1] of 3.9 nM, a Ki [2] of 3.7 nM and an IC50 ([3]; Homo sapiens, BEAS-2B) of 160 nM.

In the case of `Cn1cc(NC(=O)c2cnn3cccnc23)c(-c2cc(Oc3ccc(CN4CCC[C@H](CO)C4)cc3)ccc2OC(F)F)n1` (racemic) [Example 162, 3-[2-(difluoromethoxy)-5-[4-[[rac-(3S)-3-(hydroxymethyl)-1-piperidyl]methyl]phenoxy]phenyl]-1-methyl-pyrazol-4-yl]pyrazolo[1,5-a]pyrimidine-3-carboxamide], the Ki [1] is reported as 2.6 nM, the Ki [2] is reported as 0.76 nM and the IC50 ([3]; Homo sapiens, BEAS-2B) is reported as 32 nM.

`Cn1cc(NC(=O)c2cnn3cccnc23)c(-c2cc(Oc3ccc(CN4CCC[C@@H](O)C4)cc3)ccc2OC(F)F)n1` (racemic) [Example 163, N-[3-[2-(difluoromethoxy)-5-[4-[[rac-(3R)-3-hydroxy-1-piperidyl]methyl]phenoxy]phenyl]-1-methyl-pyrazol-4-yl]pyrazolo[1,5-a]pyrimidine-3-carboxamide] showed a Ki [1] of 1.5 nM, a Ki [2] of 0.37 nM and an IC50 ([3]; Homo sapiens, BEAS-2B) of 21 nM.

Compound `Cn1cc(NC(=O)c2cnn3cccnc23)c(-c2cc(Oc3ccc(CN4CCCC(O)C4)cc3)ccc2OC(F)F)n1` (racemic) [Example 164, N-[3-[2-(difluoromethoxy)-5-[4-[[rac-(3S)-3-hydroxy-1-piperidyl]methyl]phenoxy]phenyl]-1-methyl-pyrazol-4-yl]pyrazolo[1,5-a]pyrimidine-3-carboxamide] has a Ki [1] of 3.2 nM, a Ki [2] of 1.5 nM and an IC50 ([3]; Homo sapiens, BEAS-2B) of 38 nM.

`Cn1cc(NC(=O)c2cnn3cccnc23)c(-c2cc(Oc3ccc(CN4CCCC4CO)cc3)ccc2OC(F)F)n1` (racemic) [Example 165, N-[3-[2-(difluoromethoxy)-5-[4-[[rac-(2S)-2-(hydroxymethyl)pyrrolidin-1-yl]methyl]phenoxy]phenyl]-1-methyl-pyrazol-4-yl]pyrazolo[1,5-a]pyrimidine-3-carboxamide] showed a Ki [1] of 1.7 nM, a Ki [2] of 0.56 nM and an IC50 ([3]; Homo sapiens, BEAS-2B) of 31 nM.

`Cn1cc(NC(=O)c2cnn3cccnc23)c(-c2cc(Oc3ccc(CN4CCCC[C@@H]4CO)cc3)ccc2OC(F)F)n1` (racemic) [Example 166, N-[3-[2-(difluoromethoxy)-5-[4-[[rac-(2R)-2-(hydroxymethyl)-1-piperidyl]methyl]phenoxy]phenyl]-1-methyl-pyrazol-4-yl]pyrazolo[1,5-a]pyrimidine-3-carboxamide] was tested, and the Ki [1] was 2.5 nM, the Ki [2] was 0.99 nM and the IC50 ([3]; Homo sapiens, BEAS-2B) was 32 nM.

`Cn1cc(NC(=O)c2cnn3cccnc23)c(-c2cc(Oc3ccc(CN4CCCCC4CO)cc3)ccc2OC(F)F)n1` (racemic) [Example 167, N-[3-[2-(difluoromethoxy)-5-[4-[[rac-(2S)-2-(hydroxymethyl)-1-piperidyl]methyl]phenoxy]phenyl]-1-methyl-pyrazol-4-yl]pyrazolo[1,5-a]pyrimidine-3-carboxamide] gave a Ki [1] of 1.9 nM, a Ki [2] of 0.34 nM and an IC50 ([3]; Homo sapiens, BEAS-2B) of 26 nM.

`Cn1cc(NC(=O)c2cnn3cccnc23)c(-c2cc(Oc3ccc(CN4CCC4CO)cc3)ccc2OC(F)F)n1` (racemic) [Example 168, N-[3-[2-(difluoromethoxy)-5-[4-[[rac-(2S)-2-(hydroxymethyl)azetidin-1-yl]methyl]phenoxy]phenyl]-1-methyl-pyrazol-4-yl]pyrazolo[1,5-a]pyrimidine-3-carboxamide] gave a Ki [1] of 1.3 nM, a Ki [2] of 0.58 nM and an IC50 ([3]; Homo sapiens, BEAS-2B) of 30 nM.

Work on `Cn1cc(NC(=O)c2cnn3cccnc23)c(-c2cc(Oc3ccc(CN4CCC4CO)cc3)ccc2OC(F)F)n1` (racemic) [Example 169, N-[3-[2-(difluoromethoxy)-5-[4-[[rac-(2R)-2-(hydroxymethyl)azetidin-1-yl]methyl]phenoxy]phenyl]-1-methyl-pyrazol-4-yl]pyrazolo[1,5-a]pyrimidine-3-carboxamide] yielded a Ki [1] of 1.2 nM, a Ki [2] of 0.68 nM and an IC50 [3] of 29 nM.

For `Cn1cc(NC(=O)c2cnn3cccnc23)c(-c2cc(Oc3ccc(CN4CCC(CO)C4)cc3)ccc2OC(F)F)n1` (racemic) [Example 170, N-[3-[2-(difluoromethoxy)-5-[4-[[rac-(3S)-3-(hydroxymethyl)pyrrolidin-1-yl]methyl]phenoxy]phenyl]-1-methyl-pyrazol-4-yl]pyrazolo[1,5-a]pyrimidine-3-carboxamide], the Ki [1] was 4.1 nM, the Ki [2] was 1.9 nM and the IC50 ([3]; Homo sapiens, BEAS-2B) was 76 nM.

Work on `Cn1cc(NC(=O)c2cnn3cccnc23)c(-c2cc(Oc3ccc(CN4CCC[C@@H]4CO)cc3)ccc2OC(F)F)n1` (racemic) [Example 171, N-[3-[2-(difluoromethoxy)-5-[4-[[rac-(2R)-2-(hydroxymethyl)pyrrolidin-1-yl]methyl]phenoxy]phenyl]-1-methyl-pyrazol-4-yl]pyrazolo[1,5-a]pyrimidine-3-carboxamide] yielded a Ki [1] of 1.9 nM, a Ki [2] of 0.95 nM and an IC50 ([3]; Homo sapiens, BEAS-2B) of 50 nM.

With `Cn1cc(NC(=O)c2cnn3cccnc23)c(-c2cc(Oc3ccc(CN4CC[C@@H](CO)C4)cc3)ccc2OC(F)F)n1` (racemic) [Example 172, N-[3-[2-(difluoromethoxy)-5-[4-[[rac-(3R)-3-(hydroxymethyl)pyrrolidin-1-yl]methyl]phenoxy]phenyl]-l-methyl-pyrazol-4-yl]pyrazolo[1,5-a]pyrimidine-3-carboxamide] the Ki [1] was 6.2 nM, the Ki [2] was 1.4 nM and the IC50 ([3]; Homo sapiens, BEAS-2B) was 150 nM.

`CN(C)[C@H]1CCN(C(=O)c2cccc(Oc3ccc(OC(F)F)c(-c4nn(C)cc4NC(=O)c4cnn5cccnc45)c3)c2)C1` (racemic) [Example 210, N-[3-[2-(difluoromethoxy)-5-[3-[rac-(3R)-3-(dimethylamino)pyrrolidine-1-carbonyl]phenoxy]phenyl]-1-methyl-pyrazol-4-yl]pyrazolo[1,5-a]pyrimidine-3-carboxamide] was tested, and the Ki [1] was 1.1 nM, the Ki [2] was 0.95 nM and the IC50 ([3]; Homo sapiens, BEAS-2B) was 50 nM.

Compound `CN(C)C1CCN(C(=O)c2cccc(Oc3ccc(OC(F)F)c(-c4nn(C)cc4NC(=O)c4cnn5cccnc45)c3)c2)C1` (racemic) [Example 211, N-[3-[2-(difluoromethoxy)-5-[3-[rac-(3S)-3-(dimethylamino)pyrrolidine-1-carbonyl]phenoxy]phenyl]-1-methyl-pyrazol-4-yl]pyrazolo[1,5-a]pyrimidine-3-carboxamide] has a Ki [1] of 0.98 nM, a Ki [2] of 0.58 nM and an IC50 ([3]; Homo sapiens, BEAS-2B) of 54 nM.

For `CN(C)C1CCCN(C(=O)c2cccc(Oc3ccc(OC(F)F)c(-c4nn(C)cc4NC(=O)c4cnn5cccnc45)c3)c2)C1` (racemic) [Example 213, N-[3-[2-(difluoromethoxy)-5-[3-[rac-(3R)-3-(dimethylamino)piperidine-1-carbonyl]phenoxy]phenyl]-1-methyl-pyrazol-4-yl]pyrazolo[1,5-a]pyrimidine-3-carboxamide], the Ki [1] was 1.2 nM, the Ki [2] was 0.89 nM and the IC50 ([3]; Homo sapiens, BEAS-2B) was 49 nM.

With `Cn1cc(NC(=O)c2cnn3cccnc23)c(-c2cc(Oc3cccc([C@@H]4COCCN4)c3)ccc2OC(F)F)n1` (stereo in doubt) [Example 32, N-[3-[2-(difluoromethoxy)-5-[3-[rac-(3R)-morpholin-3-yl]phenoxy]phenyl]-1-methyl-pyrazol-4-yl]pyrazolo[1,5-a]pyrimidine-3-carboxamide] the Ki [1] was 0.67 nM, the Ki [2] was 0.39 nM and the IC50 ([3]; Homo sapiens, BEAS-2B) was 46 nM.

`Cn1cc(NC(=O)c2cnn3cccnc23)c(-c2cc(Oc3cccc([C@H]4COCCN4)c3)ccc2OC(F)F)n1` (stereo in doubt) [Example 33, N-[3-[2-(difluoromethoxy)-5-[3-[rac-(3S)-morpholin-3-yl]phenoxy]phenyl]-1-methyl-pyrazol-4-yl]pyrazolo[1,5-a]pyrimidine-3-carboxamide] was tested, and the Ki [1] was 0.95 nM, the Ki [2] was 0.43 nM and the IC50 ([3]; Homo sapiens, BEAS-2B) was 62 nM.

Work on `Cn1cc(NC(=O)c2cnn3cccnc23)c(-c2cc(Oc3cccc(CN4CCO[C@@H](CO)C4)c3)ccc2OC(F)F)n1` (stereo in doubt) [Example 75, N-[3-[2-(difluoromethoxy)-5-[3-[[rac-(2S)-2-(hydroxymethyl)morpholin-4-yl]methyl]phenoxy]phenyl]-1-methyl-pyrazol-4-yl]pyrazolo[1,5-a]pyrimidine-3-carboxamide] yielded a Ki [1] of 0.84 nM, a Ki [2] of 0.89 nM and an IC50 ([3]; Homo sapiens, BEAS-2B) of 96 nM.
